Tests used:
[1] = system: Oscillatoria; experiment: Picolinafen on axenic Oscillatoria culture, total chlorophyll; type: cell-based; details: 10-day exposure
Experimental: (§1) A stock solution of 50 micrograms picolinafen/L was prepared from technical grade picolinafen. Axenic algal cultures of Scenedesmus and Ankistrodesmus (green phytoplankton), Pithophora and Oedogonium (filamentous green), and Anabaena, Oscillatoria, and Pseudanabaena (blue-green) were grown. Stock material from these cultures was placed in 250 ml of CLII media (a known, defined algal growth medium). Following the addition of the algae, picolinafen was added to the beakers to achieve concentrations of 0, 1.5, 5, 10, 25, and 50 ppb. Each treatment was replicated three times and beakers were placed in Percival growth chambers that were set at 25° C., with a light intensity of 300 micromoles/square meter/second and a 16:8 photoperiod. The algae were given a 10 to 14 day incubation period, and depending on the growth form of the algae, either total chlorophyll, cell counts, or algal biomass were quantified as end points.

[2] = system: algal species; experiment: Algal culture exposure, overall observations; type: cell-based
Experimental: as §1

[3] = system: Ankistrodesmus; experiment: Picolinafen on axenic Ankistrodesmus culture, cell counts; type: cell-based; details: 10-day exposure
Experimental: as §1

[4] = system: Spirogyra; experiment: Picolinafen on Spirogyra culture, biomass; type: cell-based; details: 10-day exposure
Experimental: [The source words this procedure for another organism and reports this organism under the same test.] as §1

[5] = system: Oedogonium; experiment: Picolinafen on axenic Oedogonium culture, total chlorophyll and biomass; type: cell-based; details: 10-day exposure
Experimental: as §1

[6] = system: hydrilla; experiment: Impact on growth of hydrilla; type: in vivo; details: at levels showing significant control of the algal species
[7] = system: Pithophora (filamentous green); experiment: Picolinafen on axenic Pithophora culture, biomass; type: cell-based; details: 10-day exposure
Experimental: as §1

[8] = system: eurasian watermilfoil; experiment: Impact on growth of eurasian watermilfoil; type: in vivo; details: at levels showing significant control of the algal species
[9] = system: Pseudanabaena (blue-green); experiment: Picolinafen on axenic Pseudanabaena culture, cell counts; type: cell-based; details: 10-day exposure
Experimental: as §1

[10] = system: Scenedesmus; experiment: Picolinafen on axenic Scenedesmus culture, total chlorophyll; type: cell-based; details: 10-day exposure
Experimental: as §1

[11] = system: Anabaena; experiment: Picolinafen on axenic Anabaena culture, total chlorophyll; type: cell-based; details: for Total Chl: 10-day exposure
Experimental: as §1

O=C(Nc1ccc(F)cc1)c1cccc(Oc2cccc(C(F)(F)F)c2)n1 [Picolinafen, N-(4-fluorophenyl)-6-[3-(trifluoromethyl)phenoxy]-2-pyridinecarboxamide]
Total Chl ([1]; 1.5 ppb): 14 μg chl. | Total Chl ([1]; 5 ppb): 10 μg chl. | Total Chl ([1]; 10 ppb): 21 μg chl. | Total Chl ([1]; 25 ppb): 17 μg chl. | Total Chl ([1]; 50 ppb): 13 μg chl. | sensitivity of most algal species ([2]; concentrations of 10 ppb and less): highly sensitive | time to bleaching (visual observations) ([2]; some of the test species): ≤ 12 h | algacidal versus herbicidal activity in the aquatic environment ([2]; two aquatic macrophyte species compared with various algal species): greater algacidal than herbicidal activity | Cell Count ([3]; 1.5 ppb): 3,025,323 cells/ml | Cell Count ([3]; 5 ppb): 141,246 cells/ml | Cell Count ([3]; 10 ppb): 96,622 cells/ml | Cell Count ([3]; 25 ppb): 87,012 cells/ml | Cell Count ([3]; 50 ppb): 81,706 cells/ml | Biomass ([4]; 1.5 ppb): 16.2 mg dry wt./beaker | Biomass ([4]; 5 ppb): 6.9 mg dry wt./beaker | Biomass ([4]; 10 ppb): 3.0 mg dry wt./beaker | Biomass ([4]; 25 ppb): 3.8 mg dry wt./beaker | Biomass ([4]; 50 ppb): 3.3 mg dry wt./beaker | Biomass ([5]; 1.5 ppb): 0.064 mg dry wt./beaker | Total Chl ([5]; 1.5 ppb): 1522 μg chl. | Biomass ([5]; 5 ppb): 0.027 mg dry wt./beaker | Total Chl ([5]; 5 ppb): 1057 μg chl. | Biomass ([5]; 10 ppb): 0.019 mg dry wt./beaker | Total Chl ([5]; 10 ppb): 342 μg chl. | Biomass ([5]; 25 ppb): 0.011 mg dry wt./beaker | Total Chl ([5]; 25 ppb): 247 μg chl. | Biomass ([5]; 50 ppb): 0.005 mg dry wt./beaker | Total Chl ([5]; 50 ppb): 144 μg chl. | impact upon the growth of hydrilla [6]: substantially no impact | Biomass ([7]; 1.5 ppb): 26.2 mg dry wt./beaker | Biomass ([7]; 5 ppb): 19.1 mg dry wt./beaker | Biomass ([7]; 10 ppb): 20.4 mg dry wt./beaker | Biomass ([7]; 25 ppb): 14.8 mg dry wt./beaker | Biomass ([7]; 50 ppb): 11.4 mg dry wt./beaker | impact upon the growth of eurasian watermilfoil [8]: substantially no impact | Cell Count ([9]; 1.5 ppb): 2,344 cells/ml | Cell Count ([9]; 5 ppb): 89 cells/ml | Cell Count ([9]; 10 ppb): 52 cells/ml | Cell Count ([9]; 25 ppb): 98 cells/ml | Cell Count ([9]; 50 ppb): 77 cells/ml | Total Chl ([10]; 1.5 ppb): 2427 (119) μg chl/g | Total Chl ([10]; 5 ppb): 87 (16) μg chl/g | Total Chl ([10]; 10 ppb): 15 (6) μg chl/g | Total Chl ([10]; 25 ppb): 17 (8) μg chl/g | Total Chl ([10]; 50 ppb): 12 (6) μg chl/g | tolerance of Anabaena compared to other algal species [11]: highest level of tolerance | Total Chl ([11]; 1.5 ppb): 880 μg chl. | Total Chl ([11]; 5 ppb): 906 μg chl. | Total Chl ([11]; 10 ppb): 685 μg chl. | Total Chl ([11]; 25 ppb): 526 μg chl. | Total Chl ([11]; 50 ppb): 101 μg chl.

Reference: US20130102638A1, “METHODS AND COMPOSITIONS FOR CONTROLLING ALGAE” (priority 2002, published 2013)
